Measurements from US10023592B2, “Bromodomain inhibitors” (Celgene Quanticel Research, Inc., priority 2013, dated 2018).

What was measured:
[1] = test system: Raji, human Burkitts lymphoma cells; assay: Cell-MTS proliferation assay, Raji; type: cell-based; details: Homo sapiens, Cell-MTS proliferation, 168 hr
Summary of the method: (§1)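 Seven-day colorimetric MTS assay; compound at 11 concentrations from 100 μM down to 2.0 nM final, added a day after plating. IC50 from OD490 normalised to DMSO controls.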

[2] = test system: NCI-H460, human non-small cell lung cancer cells; assay: Cell-MTS proliferation assay, NCI-H460; type: cell-based; details: Homo sapiens, Cell-MTS proliferation, 168 hr
Summary of the method: as §1

[3] = test system: HL-60, human proleukemia cells; assay: Cell-MTS proliferation assay, HL-60; type: cell-based; details: Homo sapiens, Cell-MTS proliferation, 168 hr
Summary of the method: as §1

BRD4(BD1) = BRD4(BD1) (Homo sapiens (Human), UniProt O60885); assay: In vitro enzyme inhibition assay (BRD4 AlphaScreen); type: binding; details: in vitro enzyme inhibition assay
Summary of the method: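 AlphaScreen proximity readout, using streptavidin donor and Ni-chelate acceptor beads at 5 μg/mL final, monitors biotin-H4 tetraacetylated peptide interaction with purified His-tagged BRD4.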

| IC50 ([1]; Raji) | IC50 ([2]; NCI-H460) | IC50 ([3]; HL-60) | IC50 (BRD4(BD1)) | IC50 ([1]; Raji cells) | IC50 ([2]; NCI-H460 cells) | IC50 ([3]; HL-60 cells) | SMILES |
| --- | --- | --- | --- | --- | --- | --- | --- |
| 500 to 5000 nM | > 5000 nM | 500 to 5000 nM | < 500 nM | – | – | – | CCOc1sc(S(=O)(=O)CC)cc1-c1cn(C)c(=O)c2ccccc12 [Example 204, 4-(2-ethoxy-5-ethylsulfonylthiophen-3-yl)-2-methylisoquinolin-1-one] |
| – | – | – | < 500 nM | 500 to 5000 nM | > 5000 nM | < 500 nM | Cn1cc(-c2cn(CS(C)(=O)=O)c(=O)cc2OCC2CC2)c2ccc(F)cc2c1=O [Example 383, 4-[4-(cyclopropylmethoxy)-1-(methylsulfonylmethyl)-6-oxopyridin-3-yl]-7-fluoro-2-methylisoquinolin-1-one] |
| 500 to 5000 nM | 500 to 5000 nM | < 500 nM | < 500 nM | – | – | – | Cn1cc(-c2cc(CS(C)(=O)=O)ccc2OCC(F)(F)F)c2ccoc2c1=O [Example 258, 6-methyl-4-[5-(methylsulfonylmethyl)-2-(2,2,2-trifluoroethoxy)phenyl]furo[2,3-c]pyridin-7-one] |
| > 5000 nM | > 5000 nM | 500 to 5000 nM | < 500 nM | – | – | – | Cn1cc(-c2cc(S(C)(=O)=O)ccc2O[C@H]2CC[C@@H](N)CC2)c2ccccc2c1=O [Example 183, 4-[2-(cis-4-aminocyclohexyl)oxy-5-methylsulfonylphenyl]-2-methylisoquinolin-1-one] |
| – | – | – | < 500 nM | 500 to 5000 nM | > 5000 nM | < 500 nM | Cc1cc(-c2cn(CS(C)(=O)=O)c(=O)cc2OCC2CC2)cn(C)c1=O [Example 382, 5-[4-(cyclopropylmethoxy)-1-(methylsulfonylmethyl)-6-oxopyridin-3-yl]-1,3-dimethylpyridin-2-one] |
| < 500 nM | 500 to 5000 nM | < 500 nM | < 500 nM | – | – | – | CCS(=O)(=O)c1ccc(OCC2CC2)c(-c2cn(C)c(=O)c3cncn23)c1 [Example 368, 5-[2-(cyclopropylmethoxy)-5-ethylsulfonylphenyl]-7-methylimidazo[1,5-a]pyrazine-8-one] |
| 500 to 5000 nM | > 5000 nM | < 500 nM | < 500 nM | – | – | – | Cn1cc(-c2cc(S(C)(=O)=O)ncc2OCC2CC2)c2ccccc2c1=O [Example 200, 4-[5-(cyclopropylmethoxy)-2-methylsulfonylpyridin-4-yl]-2-methylisoquinolin-1-one] |
| < 500 nM | > 5000 nM | < 500 nM | < 500 nM | – | – | – | CCS(=O)(=O)Nc1ncc(Oc2ccc(F)cc2F)c(-c2cc(C)c(=O)n(C)c2)n1 [Example 169, N-[5-(2,4-difluorophenoxy)-4-(1,5-dimethyl-6-oxopyridin-3-yl)pyrimidin-2-yl]ethanesulfonamide] |
| – | – | – | < 500 nM | 500 to 5000 nM | > 5000 nM | 500 to 5000 nM | Cn1cc(-c2cn(CS(C)(=O)=O)c(=O)cc2Oc2ccc(F)cc2F)ccc1=O [Example 386, 4-(2,4-difluorophenoxy)-5-(1-methyl-6-oxopyridin-3-yl)-1-(methylsulfonylmethyl)pyridin-2-one] |
| 500 to 5000 nM | > 5000 nM | < 500 nM | < 500 nM | – | – | – | CCS(=O)(=O)c1ccc(OCC2CC2)c(-c2cc(C)c(=O)n(C3CC3)c2)c1 [Example 251, 1-cyclopropyl-5-[2-(cyclopropylmethoxy)-5-ethylsulfonylphenyl]-3-methylpyridin-2-one] |
